According to the supplement of paper PMC11061612:

Key:
[1] = tested on: BICR78 (Oral Cavity Carcinoma); test: Bliss excess, mean over the matrix (fraction); higher = more synergy
Summary of the method: (§1)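 Cell lines in DMEM/F12 or RPMI with 10% FBS were plated in 1536-well plates, held 24 hours at 37°C, 5% CO2, then given two-drug dose matrices for 72 hours (DMSO typically 0.2%). Viability was read by CellTiter-Glo 2.0 luminescence and scaled as inhibition from 0 (vehicle wells) to 1 (blank wells). Combination Emax is the second-highest inhibition in the matrix; Bliss excess is observed combination effect minus expected EA + EB − EA·EB, EA and EB being single-agent effects.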

[2] = tested on: D-392MG (Glioblastoma); test: as above
Summary of the method: as §1

[3] = tested on: EFM-192A (Breast Carcinoma); test: as above
Summary of the method: as §1

[4] = tested on: EW-22 (Ewing's Sarcoma); test: as above
Summary of the method: as §1

[5] = tested on: HCC-827 (Lung Adenocarcinoma); test: as above
Summary of the method: as §1

[6] = tested on: P31-FUJ (Acute Myeloid Leukemia); test: as above
Summary of the method: as §1

[7] = tested on: PA-TU-8902 (Pancreatic Carcinoma); test: as above
Summary of the method: as §1

[8] = tested on: RCC10RGB (Kidney Carcinoma); test: as above
Summary of the method: as §1

[9] = tested on: SK-LMS-1 (Other Solid Carcinomas); test: as above
Summary of the method: as §1

[10] = tested on: SK-UT-1 (Other Solid Carcinomas); test: as above
Summary of the method: as §1

[11] = tested on: SW948 (Colorectal Carcinoma); test: as above
Summary of the method: as §1

[12] = tested on: Saos-2 (Osteosarcoma); test: as above
Summary of the method: as §1

[13] = tested on: TYK-nu (Ovarian Carcinoma); test: as above
Summary of the method: as §1

[14] = tested on: YT (Other Blood Carcinomas); test: as above
Summary of the method: as §1

[15] = tested on: 647-V (Bladder Carcinoma); test: combination Emax (second highest fraction inhibited in the dose matrix, 72 h); higher = more inhibition; extreme values may be limits of the assay
Summary of the method: as §1

[16] = tested on: CS1 (Chondrosarcoma); test: as above
Summary of the method: as §1

[17] = tested on: EW-22 (Ewing's Sarcoma); test: as above
Summary of the method: as §1

[18] = tested on: HOP-92 (Non-Small Cell Lung Carcinoma); test: as above
Summary of the method: as §1

[19] = tested on: SW48 (Colorectal Carcinoma); test: as above
Summary of the method: as §1

[20] = tested on: Saos-2 (Osteosarcoma); test: as above
Summary of the method: as §1
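For Bliss excess, mean over the matrix in this document: after 72 h of two-drug dosing.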

| SMILES | Bliss excess [1] | Bliss excess [2] | Bliss excess [3] | Bliss excess [4] | Bliss excess [5] | Bliss excess [6] | Bliss excess [7] | Bliss excess [8] | Bliss excess [9] | Bliss excess [10] | Bliss excess [11] | Bliss excess [12] | Bliss excess [13] | Bliss excess [14] | combination Emax [15] | combination Emax [16] | combination Emax [17] | combination Emax [18] | combination Emax [19] | combination Emax [20] |
| --- | --- | --- | --- | --- | --- | --- | --- | --- | --- | --- | --- | --- | --- | --- | --- | --- | --- | --- | --- | --- |
| COc1nnc2ccc(N3CCC(c4ccc(OCCN5CCN(C)C(=O)[C@H]5C)cc4)CC3)nn12 [AZD5153] + Cc1c2c(nn1C)CSCc1cc(n(C)n1)CSc1cc(c3ccccc3c1)OCCCc1c(C(=O)O)n(C)c3c-2c(Cl)ccc13 [AZD5991] (first compound max 1 µM, 7x7, partner max 1 µM) | -0.027 | -0.0388 | -0.0467 | 0.0553 | -0.0225 | -0.0869 | -0.0316 | -0.0843 | 0.0003 | -0.0031 | -0.0482 | 0.0143 | -0.0363 | -0.0316 | 0.587 | 0.38 | 0.888 | 0.386 | 0.711 | 0.835 |
| C[C@@H](c1ccc2nccn2c1)n1nnc2ncc(-c3cnn(C)c3)nc21 [Savolitinib] + CC1(C)CCC(CN2CCN(c3ccc(C(=O)NS(=O)(=O)c4ccc(NCC5CCOCC5)c([N+](=O)[O-])c4)c(Oc4cnc5[nH]ccc5c4)c3)CC2)=C(c2ccc(Cl)cc2)C1 [Venetoclax] (first compound max 1 µM, 7x7, partner max 1 µM) | -0.0779 | -0.0454 | -0.0484 | -0.0281 | -0.0293 | -0.102 | -0.11 | -0.0768 | 0.0121 | -0.0234 | -0.0488 | -0.0259 | -0.0478 | -0.0346 | 0.0716 | 0.343 | 0.173 | 0.201 | 0.177 | 0.121 |
| NC1(C(=O)N[C@@H](CCO)c2ccc(Cl)cc2)CCN(c2ncnc3[nH]ccc23)CC1 [Capivasertib] + Cn1cnc2c(F)c(Nc3ccc(Br)cc3Cl)c(C(=O)NOCCO)cc21 [Selumetinib] (first compound max 10 µM, 7x7, partner max 10 µM) | -0.0016 | -0.0202 | -0.0326 | -0.0255 | 0.04 | 0.0376 | 0.0181 | -0.0305 | 0.0883 | 0.0843 | -0.0554 | 0.0087 | 0.0219 | -0.0041 | 0.3 | 0.502 | 0.543 | 0.685 | 0.556 | 0.46 |
| COc1nnc2ccc(N3CCC(c4ccc(OCCN5CCN(C)C(=O)[C@H]5C)cc4)CC3)nn12 [AZD5153] + CC1(C)CCC(CN2CCN(c3ccc(C(=O)NS(=O)(=O)c4ccc(NCC5CCOCC5)c([N+](=O)[O-])c4)c(Oc4cnc5[nH]ccc5c4)c3)CC2)=C(c2ccc(Cl)cc2)C1 [Venetoclax] (first compound max 1 µM, 7x7, partner max 1 µM) | -0.0468 | -0.0961 | -0.0257 | -0.0176 | -0.0498 | -0.0447 | -0.0908 | -0.0296 | -0.0641 | -0.0459 | -0.0016 | -0.0304 | -0.0887 | -0.0496 | 0.463 | 0.408 | 0.6 | 0.362 | 0.631 | 0.535 |
| CC1(C)CCC(CN2CCN(c3ccc(C(=O)NS(=O)(=O)c4ccc(NCC5CCOCC5)c([N+](=O)[O-])c4)c(Oc4cnc5[nH]ccc5c4)c3)CC2)=C(c2ccc(Cl)cc2)C1 [Venetoclax] + C[C@@H]1COCCN1C2=NC(=NC(=C2)C3(CC3)[S@](=N)(=O)C)C4=C5C=CNC5=NC=C4 [AZD6738] (first compound max 1 µM, 7x7, partner max 10 µM) | -0.0397 | -0.0807 | -0.0377 | -0.0189 | -0.0418 | 0.0498 | -0.0236 | -0.0242 | -0.0884 | -0.0299 | -0.0835 | -0.0316 | -0.0315 | 0.0174 | 0.698 | 0.701 | 0.929 | 0.562 | 0.752 | 0.584 |
| CC1(C)CCC(CN2CCN(c3ccc(C(=O)NS(=O)(=O)c4ccc(NCC5CCOCC5)c([N+](=O)[O-])c4)c(Oc4cnc5[nH]ccc5c4)c3)CC2)=C(c2ccc(Cl)cc2)C1 [Venetoclax] + CN(C)CCCOc1ccc(-c2ccc3ncc4c(c3c2)n(C2CCOCC2)c(=O)n4C)cn1 [AZD0156] (first compound max 1 µM, 7x7, partner max 1 µM) | 0.0047 | -0.0225 | -0.0508 | 0.0003 | -0.0453 | -0.0179 | -0.0507 | -0.0677 | 0.001 | -0.013 | -0.0001 | -0.0364 | -0.0516 | 0.0204 | 0.196 | 0.56 | 0.866 | 0.292 | 0.607 | 0.42 |
